Tested on: VEGF-stimulated HUVEC proliferation (Human Umbilical Vein Endothelial cells)
Assay: HUVEC Proliferation Assay
Assay type: cell-based
Conditions: 72 h incubation, CyQuant readout, read-out: inhibited VEGF-stimulated HUVEC proliferation at a level (IC50)
Protocol: Human Umbilical Vein Endothelial cells are purchased from Clonetics, Inc., as cryopreserved cells harvested from a pool of donors. These cells, at passage 1, are thawed and expanded in EBM-2 complete medium, until passage 2 or 3. The cells are trypsinized, washed in DMEM+10% FBS+antibiotics, and spun at 1000 rpm for 10 min. Prior to centrifugation of the cells, a small amount is collected for a cell count. After centrifugation, the medium is discarded, and the cells are resuspended in the appropriate volume of DMEM+10% FBS+antibiotics to achieve a concentration of 3×10^5 cells/mL. Another cell count is performed to confirm the cell concentration. The cells are diluted to 3×10^4 cells/mL in DMEM+10% FBS+antibiotics, and 100 μL of cells are added to a 96-well plate. The cells are incubated at 37° C. for 22 h.
Prior to the completion of the incubation period, compound dilutions are prepared. Five-point, five-fold serial dilutions are prepared in DMSO, at concentrations 400-fold greater than the final concentrations desired. 2.5 μL of each compound dilution are diluted further in a total of 1 mL DMEM+10% FBS+antibiotics (400× dilution). Medium containing 0.25% DMSO is also prepared for the 0 μM compound sample. At the 22 h timepoint, the medium is removed from the cells, and 100 μL of each compound dilution is added. The cells are incubated at 37° C. for 2-3 h.
During the compound pre-incubation period, the growth factors are diluted to the appropriate concentrations. Solutions of DMEM+10% FBS+antibiotics, containing either VEGF or bFGF at the following concentrations: 50, 10, 2, 0.4, 0.08, and 0 ng/mL are prepared. For the compound-treated cells, solutions of VEGF at 550 ng/mL or bFGF at 220 ng/mL for 50 ng/mL or 20 ng/mL final concentrations, respectively, are prepared since 10 μL of each will be added to the cells (110 μL final volume). At the appropriate time after adding the compounds, the growth factors are added. VEGF is added to one set of plates, while bFGF is added to another set of plates. For the growth factor control curves, the media on wells B4-G6 of plates 1 and 2 are replaced with media containing VEGF or bFGF at the varying concentrations (50-0 ng/mL). The cells are incubated at 37° C. for an additional 72 h.
At the completion of the 72 h incubation period, the medium is removed, and the cells are washed twice with PBS. After the second wash with PBS, the plates are tapped gently to remove excess PBS, and the cells are placed at −70° C. for at least 30 min. The cells are thawed and analyzed using the CyQuant fluorescent dye (Molecular Probes C-7026), following the manufacturer's recommendations. The plates are read on a Victor/Wallac 1420 workstation at 485 nm/530 nm (excitation/emission). Raw data are collected and analyzed using a 4-parameter fit equation in XLFit. IC50 values are then determined.

Row | SMILES | IC50
1 | CC(C)(C)c1ccc(N2Cc3cccc(NCc4c[nH]c5ncccc45)c3C2=O)cc1 [Example 32, 2-(4-tert-butyl-phenyl)-7-[(1H-pyrrolo [2,3-b]pyridin-3-ylmethyl)-amino]-2,3-dihydro-isoindol-1-one] | < 500 nM
2 | CC1(C)CNc2cc(N3Cc4cccc(NCc5ccncc5)c4C3=O)ccc21 [Example 17] | < 500 nM
3 | CC(C)(C)c1ccc(N2Cc3cccc(NCc4ccncc4)c3C2=O)cc1 [Example 1, 2-(4-(1,1-Dimethylethyl)phenyl)-7-((4-pyridinylmethyl)amino)-2,3-dihydro-1H-isoindol-1-one] | < 500 nM
4 | CC(=O)N1CC(C)(C)c2ccc(N3Cc4cccc(NCc5ccncc5)c4C3=O)cc21 [Example 16, 2-(1-acetyl-3,3-dimethyl-2,3-dihydro-1H-indol-6-yl)-7-[(pyridin-4-ylmethyl)-amino]-2,3-dihydro-isoindol-1-one] | < 500 nM
5 | CC(C)(C)c1cc(N2Cc3cccc(NCc4ccncc4)c3C2=O)[nH]n1 [Example 46, 2-(5-tert-butyl-2H-pyrazol-3-yl)-7-[(pyridin-4-ylmethyl)-amino]-2,3-dihydro-isoindol-1-one] | < 500 nM
6 | CC(C)(C)c1ccc(N2Cc3ccnc(NCc4ccncc4)c3C2=O)cc1 [Example 80, 2-(4-tert-butyl-phenyl)-4-[(pyridin-4-ylmethyl)-amino]-1,2-dihydro-pyrrolo[3,4-c]pyridin-3-one] | < 500 nM
7 | CC1(C)CNCc2cc(N3Cc4cccc(NCc5c[nH]c6ncccc56)c4C3=O)ccc21 [Example 35] | < 500 nM
8 | CC1(C)CNCc2cc(N3Cc4cccc(NCc5ccc6ncccc6c5)c4C3=O)ccc21 [Example 64, 2-(4,4-Dimethyl-1,2,3,4-tetrahydro-isoquinolin-7-yl)-7-[(quinolin-6-ylmethyl)-amino]-2,3-dihydro-isoindol-1-one] | < 500 nM
9 | CC1(C)CNCc2cc(N3Cc4cccc(NCc5ccncc5)c4C3=O)ccc21 [Example 20] | < 500 nM
10 | CC(C)(C)c1ccc(N2Cc3ccnc(NCc4ccnc(N)c4)c3C2=O)cc1 [Example 83, 4-[(2-amino-pyridin-4-ylmethyl)-amino]-2-(4-tert-butyl-phenyl)-1,2-dihydro-pyrrolo[3,4-c]pyridin-3-one] | < 500 nM
